Key:
[1] = tested on: IL-1β release (NLRP3 inflammasome activation); test: NLRP3 inflammasome activation assay, IL-1β release (ELISA) in human PBMC-derived macrophages; format: cell-based; conditions: 10 μM, 24 h pre-treatment, then LPS 3 h and nigericin 1 h
Procedure: (§1) Macrophages were differentiated from human PBMCs isolated from buffy coats from healthy donors.
(§2) Buffy coats were diluted 1:1 (v/v) with DPBS (Sigma-Aldrich) in falcon tubes. After reconstitution, suspension was carefully layered on Histopaque-1077 solution (Sigma-Aldrich) and centrifuged (760×g, RT, 20 min; Brakes Off). PBMCs were collected and washed with DPBS (3× at 350×g, RT, 8 min and 1× at 200×g, RT, 10 min; Brakes On). Subsequently, cells were resuspended in appropriate volume of RPMI 1640 medium (Gibco) supplemented with 10% of heat-inactivated FBS (Gibco) and 1% of Penicillin-Streptomycin Solution 100x (Biowest). Cell viability was measured using trypan blue solution (Sigma-Aldrich).
(§3) 10×10^6 of PBMCs per well were seeded on 6-well plates in complete medium supplemented with 10 ng/ml of M-CSF growth factor (R&D Systems). Differentiation was conducted for a week with medium replacement every 2-3 days. Differentiation of PBMCs into mature macrophages was confirmed by microscopic evaluation and FACS surface staining for the following markers: CD11b, CD14, CD16 (BD Pharmingen). Differentiated macrophages were subjected on NLRP3 inflammasome activation assay.
(§4) Human PBMC-derived macrophages were pre-treated for 24 h with exemplary compounds at the specific concentrations. Dilutions of tested compound were prepared in DMSO. Afterwards cells were primed with 1 μg/ml of LPS (Invivogen) for 3 h and NLRP3 inflammasomes were activated with 5 μM of nigericin solution (Invivogen) for 1 h. Supernatants were centrifuged and stored for ELISA assays and cell lysates were prepared for Western blotting analysis.
(§5) IL-1β and IL-18 level was quantified using ELISA assays (R&D Systems) according to the manufacturer's protocol. 96-well plates were coated overnight with appropriate capture antibodies. Plates were blocked and incubated at RT for a minimum of 1 h. Samples or standards were added and incubated for 2 h in RT. Next, biotinylated anti-human IL-1β or IL-18 detection antibodies were added for 2 h in RT. Strepatividin-HRP solution was added for 20 min of incubation. Subsequently, substrate solution was added for 20 min. Between each step washing procedure was performed. The reaction was stopped, and optical density was determined using CLARIOstar Multimode Plate reader set to 450 nm with wavelength correction set to 570 nm. The analysis was performed with GraphPad Prism Software and Excel spreadsheet.
(§6) To evaluate compound effect on inflammasome activation (measured as IL-1β and IL-18 release), human PBMC-derived macrophages were treated with individual compounds for 24 h prior to inflammasome activation. As shown in the Table 4 and in FIGS. 2A and 2B, after 24 h of pre-treatment with exemplary compounds, a dose-dependent decrease of cytokines level was noted.

[2] = tested on: IL-18 release (NLRP3 inflammasome activation); test: NLRP3 inflammasome activation assay, IL-18 release (ELISA) in human PBMC-derived macrophages; format: cell-based; conditions: 10 μM, 24 h pre-treatment, then LPS 3 h and nigericin 1 h
Procedure: as §1, §2, §3, §4, §5, §6

SMILES	Level of released IL-1β (% of DMSO control) [1]	Level of released IL-18 (% of DMSO control) [2]
O=C1CCC(N2Cc3cc(C4CCCCN4)ccc3C2=O)C(=O)N1 (stereo not shown) [Compound 2, 3-(1-oxo-5-(piperidin-2-yl)isoindolin-2-yl)piperidine-2,6-dione]	B (Levels of released cytokines > 25% and ≤50%)	A (Levels of released cytokines ≤ 25%)
Cc1c(C2CCCCN2)ccc2c1CN(C1CCC(=O)NC1=O)C2=O (stereo not shown) [Compound 19, 3-(4-methyl-1-oxo-5-(piperidin-2-yl)isoindolin-2-yl)piperidine-2,6-dione]	C (Levels of released cytokines > 50% and <75%)	C (Levels of released cytokines > 50% and <75%)
CC1c2cc(C3CCCCO3)ccc2C(=O)N1C1CCC(=O)NC1=O (stereo not shown) [Compound 64, 3-(3-methyl-1-oxo-5-(tetrahydro-2H-pyran-2-yl)isoindolin-2-yl)piperidine-2,6-dione]	A (Levels of released cytokines ≤ 25%)	A (Levels of released cytokines ≤ 25%)
CC1c2cc(C3CCCCN3)ccc2C(=O)N1C1CCC(=O)NC1=O (stereo not shown) [Compound 25, 3-(3-methyl-1-oxo-5-(piperidin-2-yl)isoindolin-2-yl)piperidine-2,6-dione]	A (Levels of released cytokines ≤ 25%)	A (Levels of released cytokines ≤ 25%)
O=C1CCC(N2Cc3cc(-c4ccc(-c5ccccc5)cn4)ccc3C2=O)C(=O)N1 (stereo not shown) [4(2), 3-(1-oxo-5-(5-phenylpyridin-2-yl)isoindolin-2-yl)piperidine-2,6-dione]	D (Levels of released cytokines ≥ 75%)	B (Levels of released cytokines > 25% and ≤50%)

Source: patent US20260151403A1, “NEK7 DEGRADERS AND METHODS OF USE THEREOF” (Captor Therapeutics S.A., priority 2022, published 2026)
